Legend:
[1] = Pharmacokinetics test (hepatic microsome stability test); settings: human hepatic microsome 1 mg/mL, 37° C., 60 min, 1 μmol/L
[2] = molecular target: rat EP4 receptor (Rattus norvegicus (Rat), UniProt P43114); test: EP4 antagonistic activity measurement using prostanoid receptor subtype expressing cells (cAMP); format: cell-based; settings: CHO cells expressing rat EP4 receptor; inhibition of cAMP production by PGE2 10 nM
Description: CHO cells expressing rat EP4 receptor subtypes were prepared according to the methods of Nishigaki et al. (FEBS Letters, Vol. 364, p. 339-341, 1995), and used for experiment. Cultured subconfluent cells were detached, and suspended in an assay medium (MEM containing 1 mmol/L IBMX, 1% HSA) in a concentration of 1×10^6 cells/mL. For reaction, PGE2 was added to the cell suspension (25 μL) in a final concentration of 10 nmol/L, either alone or as a 25-μL PGE2 solution containing the test compound. After 30 minutes of reaction at room temperature, the amount of cAMP in the cells was quantified according to the method in the descriptions of the cAMP assay kit (CISBIO).
The antagonistic effect (IC50 value) of the test compound was calculated as a value that represents an inhibition rate against a reaction with PGE2 alone at 10 nM, a concentration that produces a submaximal cAMP producing effect.

Sequence of rat EP4 receptor (P43114 whole entry): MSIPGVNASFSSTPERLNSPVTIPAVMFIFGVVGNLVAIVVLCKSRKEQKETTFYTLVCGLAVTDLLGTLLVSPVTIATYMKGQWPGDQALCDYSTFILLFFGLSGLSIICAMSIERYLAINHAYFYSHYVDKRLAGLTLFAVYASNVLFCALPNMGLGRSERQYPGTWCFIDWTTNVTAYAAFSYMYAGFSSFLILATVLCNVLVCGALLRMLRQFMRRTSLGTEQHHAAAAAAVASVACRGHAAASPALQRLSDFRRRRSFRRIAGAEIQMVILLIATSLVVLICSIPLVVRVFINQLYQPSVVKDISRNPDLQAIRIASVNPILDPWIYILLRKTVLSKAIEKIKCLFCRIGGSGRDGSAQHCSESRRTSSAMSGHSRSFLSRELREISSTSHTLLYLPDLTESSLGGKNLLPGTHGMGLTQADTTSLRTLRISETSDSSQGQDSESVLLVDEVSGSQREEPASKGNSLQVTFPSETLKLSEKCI

SMILES | Remaining rate (%) [1] [%] | IC50 [2] [nM]
CNC(=O)c1ccc2c(c1)[C@]1(CCO2)C[C@H]1C(=O)Nc1cc(C#N)ccc1CCCC(=O)O [Example 1, 4-[4-Cyano-2-({[(2′R,4S)-6-(methylcarbamoyl)-2,3-dihydrospiro[chromene-4,1′-cyclopropan]-2′-yl]carbonyl}amino)phenyl]butanoic acid] | 94 | 2.5
CC(C)(C)NC(=O)c1ccc2c(c1)[C@]1(CCO2)C[C@H]1C(=O)Nc1cc(C#N)ccc1CCCC(=O)O [Example 2-3, 4-{4-Cyano-2-[({(2′R, 4S)-6-[(2-methyl-2-propanyl)carbamoyl]-2,3-dihydrospiro[chromene-4,1′-cyclopropan]-2′-yl}carbonyl)amino]phenyl}butanoic acid] | 91 | 3.5
COC[C@H](C)NC(=O)c1ccc2c(c1)[C@]1(CCO2)C[C@H]1C(=O)Nc1cc(C#N)ccc1CCCC(=O)O [Example 2-4, 4-[4-Cyano-2-({[(2′R,4S)-6-{[(2S)-1-methoxy-2-propanyl]carbamoyl}-2,3-dihydrospiro[chromene-4,1′-cyclopropan]-2′-yl]carbonyl}amino)phenyl]butanoic acid] | 86 | 3.3
Cn1cc(NC(=O)c2ccc3c(c2)[C@]2(CCO3)C[C@H]2C(=O)Nc2cc(C#N)ccc2CCCC(=O)O)cn1 [Example 2-5] |  | 1.3
Cn1ccc(NC(=O)c2ccc3c(c2)[C@]2(CCO3)C[C@H]2C(=O)Nc2cc(C#N)ccc2CCCC(=O)O)n1 [Example 2-9, 4-{4-Cyano-2-[({(2′R,4S)-6-[(1-methyl-1H-pyrazol-yl)carbamoyl]-2,3-dihydrospiro[chromene-4,1′-cyclopropan]-2′-yl}carbonyl)amino]phenyl}butanoic acid] | 92 | 4.5
N#Cc1ccc(CCCC(=O)O)c(NC(=O)[C@@H]2C[C@]23CCOc2ccc(C(=O)NC4CC4)cc23)c1 [Example 2-10, 4-[4-cyano-2-({[(2′R,4S)-6-(cyclopropylcarbamoyl)-2,3-dihydrospiro[chromene-4,1′-cyclopropan]-2′-yl]carbonyl}amino)phenyl]butanoic acid] | 94 | 4
N#Cc1ccc(CCCC(=O)O)c(NC(=O)[C@@H]2C[C@]23CCOc2ccc(C(=O)NC4CCCC4)cc23)c1 [Example 2-14, 4-[4 Cyano 2-({[(2′R,4S)-6-(cyclopentylcarbamoyl)-2,3-dihydrospiro[chromene-4,1′-cyclopropan]-2′-yl]carbonyl}amino)phenyl]butanoic acid] | 96 | 4.5
N#Cc1ccc(CCCC(=O)O)c(NC(=O)[C@@H]2C[C@]23CCOc2ccc(C(=O)Nc4ccccn4)cc23)c1 [Example 2-23, 4-[4-Cyano-2-({[(2′R,4S)-6-(2-pyridinylcarbamoyl)-2,3-dihydrospiro[chromene-4,1′-cyclopropan]-2′-yl]carbonyl}amino)phenyl]butanoic acid] | 100 | 4.5
N#Cc1ccc(CCCC(=O)O)c(NC(=O)[C@@H]2C[C@]23CCOc2ccc(C(=O)Nc4cccnn4)cc23)c1 [Example 2-29, 4-[4-Cyano-2-({[(2′R,4S)-6-(3-pyridazinylcarbamoyl)-2,3-dihydrospiro[chromene-4,1′-cyclopropan]-2′-yl]carbonyl}amino)phenyl]butanoic acid] | 80 | 2.5
N#Cc1ccc(CCCC(=O)O)c(NC(=O)[C@@H]2C[C@]23CCOc2ccc(C(=O)NCC(F)F)cc23)c1 [Example 2-32, 4-{4-Cyano-2-[({(2′R,4S)-6-[(2,2-difluoroethyl)carbamoyl]-2,3-dihydrospiro[chromene-4,1′-cyclopropan]-2′-yl}carbonyl)amino]phenyl}butanoic acid] | 85 | 3.7
CN1CC[C@H](NC(=O)c2ccc3c(c2)[C@]2(CCO3)C[C@H]2C(=O)Nc2cc(C#N)ccc2CCCC(=O)O)C1 [Example 2-33, 4-[4-Cyano-2-({[(2′R,4S)-6-{[(3S)-1-methyl-3-pyrrolidinyl]carbamoyl}-2,3-dihydrospiro[chromene-4,1′-cyclopropan]-2′-yl]carbonyl}amino)phenyl]butanoic acid] | 89 | 9.7
N#Cc1ccc(CCCC(=O)O)c(NC(=O)[C@@H]2C[C@]23CCOc2ccc(C(=O)Nc4ncccn4)cc23)c1 [Example 2-36, 4-[4-Cyano-2-({[(2′R,4S)-6-(2-pyrimidinylcarbamoyl)-2,3-dihydrospiro[chromene-4,1′-cyclopropan]-2′-yl]carbonyl}amino)phenyl]butanoic acid] | 100 | 5.4
N#Cc1ccc(CCCC(=O)O)c(NC(=O)[C@@H]2C[C@]23CCOc2ccc(C(=O)Nc4ccon4)cc23)c1 [Example 2-37, 4-[4-Cyano-2-({[(2′R,4S)-6-(1,2-oxazol-3-ylcarbamoyl)-2,3-dihydrospiro[chromene-4,1′-cyclopropan]-2′-yl]carbonyl}amino)phenyl]butanoic acid] | 97 | 3.4
N#Cc1ccc(CCCC(=O)O)c(NC(=O)[C@@H]2C[C@]23CCOc2ccc(C(=O)NC4CCC4)cc23)c1 [Example 2-38, 4-[4-Cyano-2-({[(2′R,4S)-6-(cyclobutylcarbamoyl)-2,3-dihydrospiro[chromene-4,1′-cyclopropan]-2′-yl]carbonyl}amino)phenyl]butanoic acid] | 100 | 4.7
CC(C)(C)n1cc(NC(=O)c2ccc3c(c2)[C@]2(CCO3)C[C@H]2C(=O)Nc2cc(C#N)ccc2CCCC(=O)O)cn1 [Example 2-39, 4-[4-Cyano-2-({[(2′R,4S)-6-{[1-(2-methyl-2-propanyl)-1H-pyrazol-4-yl]carbamoyl}-2,3-dihydrospiro[chromene-4,1′-cyclopropan]-2′-yl]carbonyl}amino)phenyl]butanoic acid] | 90 | 3.4
N#Cc1ccc(CCCC(=O)O)c(NC(=O)[C@@H]2C[C@]23CCOc2ccc(C(=O)NC4CCOCC4)cc23)c1 [Example 2-40, 4-[4-Cyano-2-({[(2′R,4S)-6-(tetrahydro-2H-pyran-4-ylcarbamoyl)-2,3-dihydrospiro[chromene-4,1′-cyclopropan]-2′-yl]carbonyl}amino)phenyl]butanoic acid] | 100 | 7.2
N#Cc1ccc(CCCC(=O)O)c(NC(=O)[C@@H]2C[C@]23CCOc2ccc(C(=O)Nc4ccno4)cc23)c1 [Example 2-41, 4-[4-Cyano-2-({[(2′R,4S)-6-(1,2-oxazol-5-ylcarbamoyl)-2,3-dihydrospiro[chromene-4,1′-cyclopropan]-2′-yl]carbonyl}amino)phenyl]butanoic acid] | 100 | 3.4
Cn1nccc1NC(=O)c1ccc2c(c1)[C@]1(CCO2)C[C@H]1C(=O)Nc1cc(C#N)ccc1CCCC(=O)O [Example 2-43, 4-{4-Cyano-2-[({(2′R,4S)-6-[(1-methyl-1H-pyrazol-5-yl)carbamoyl]-2,3-dihydrospiro[chromene-4,1′-cyclopropan]-2′-yl}carbonyl)amino]phenyl}butanoic acid] | 100 | 3.6
CCCNC(=O)c1ccc2c(c1)[C@]1(CCO2)C[C@H]1C(=O)Nc1cc(C#N)ccc1CCCC(=O)O [Example 2-44, 4-[4-Cyano-2-({[(2′R,4S)-6-(propylcarbamoyl)-2,3-dihydrospiro[chromene-4,1′-cyclopropan]-2′-yl]carbonyl}amino)phenyl]butanoic acid] | 100 | 2.5
CCOCCNC(=O)c1ccc2c(c1)[C@]1(CCO2)C[C@H]1C(=O)Nc1cc(C#N)ccc1CCCC(=O)O [Example 2-45, 4-{4-Cyano-2-[({(2′R,4S)-6-[(2-ethoxyethyl)carbamoyl]-2,3-dihydrospiro[chromene-4,1′-cycopropan]-2′-yl}carbonyl)amino]phenyl}butanoic acid] | 100 | 8.3
CCNC(=O)c1ccc2c(c1)[C@]1(CCO2)C[C@H]1C(=O)Nc1cc(C#N)ccc1CCCC(=O)O [Example 2-46, 4-[4-Cyano-2-({[(2′R,4S)-6-(ethylcarbamoyl)-2,3-dihydrospiro[chromene-4,1′-cyclopropan]-2′-yl]carbonyl}amino)phenyl]butanoic acid] | 90 | 3
Cc1nnc(-c2ccc3c(c2)[C@]2(CCO3)C[C@H]2C(=O)Nc2cc(C#N)ccc2CCCC(=O)O)o1 [Example 3, 4-[4-Cyano-2-({[(2′R,4S)-6-(5-methyl-1,3,4-oxadiazol-2-yl)-2,3-dihydrospiro[chromene-4,1′-cyclopropan]-2′-yl]carbonyl}amino)phenyl]butanoic acid] | 100 | 2.7
Cc1noc(-c2ccc3c(c2)[C@]2(CCO3)C[C@H]2C(=O)Nc2cc(C#N)ccc2CCCC(=O)O)n1 [Example 5, 4-[4-Cyano-2-({[(2′R,4S)-6-(3-methyl-1,2,4-oxadiazol-5-yl)-2,3-dihydrospiro[chromene-4,1′-cyclopropan]-2′-yl]carbonyl}amino)phenyl]butanoic acid] | 80 | 2.8
N#Cc1ccc(CCCC(=O)O)c(NC(=O)[C@@H]2C[C@]23CCOc2ccc(-c4ccccc4)cc23)c1 [Example 7-1, 4-[4-Cyano-2-({[(2′R,4S)-6-phenyl-2,3-dihydrospiro[chromene-4,1′-cyclopropan]-2′-yl]carbonyl}amino)phenyl]butanoic acid] | 81 | 17

— patent US10077247B2, “Tricyclic spiro compound” (ONO PHARMACEUTICAL CO., LTD., priority 2015, dated 2018)
